Results reported in ChEMBL document CHEMBL1201862, “PubChem BioAssay data set” (2004).
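Each compound was tested at five concentrations against cells in 96-well plates for 48 hours. GI50: concentration for 50% inhibition of growth.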 Active and inactive are the calls of the source. No stated cut-off is given here; in the data, active = GI50 up to about 1.1 µM and inactive = higher.

How the values were obtained:
Assay in all cases: growth of human tumour cells (NCI), 48 h
SR = system: SR
SF-268 = system: SF-268
SW-620 = system: SW-620
OVCAR-8 = system: OVCAR-8
IGROV-1 = system: IGROV-1
COLO 205 = system: COLO 205
A498 = system: A498
NCI-H460 = system: NCI-H460
OVCAR-3 = system: OVCAR-3
TK-10 = system: TK-10
KM12 = system: KM12
HOP-62 = system: HOP-62
K562 = system: K562
NCI-H522 = system: NCI-H522
MDA-MB-435 = system: MDA-MB-435
SK-MEL-28 = system: SK-MEL-28
CAKI-1 = system: CAKI-1
U-251 = system: U-251
HT-29 = system: HT-29
SK-MEL-2 = system: SK-MEL-2
UO-31 = system: UO-31
SK-MEL-5 = system: SK-MEL-5
HCT-15 = system: HCT-15
SNB-19 = system: SNB-19
SNB-75 = system: SNB-75
RXF 393 = system: RXF 393
A549 = system: A549
ACHN = system: ACHN
EKVX = system: EKVX
M14 = system: M14
PC-3 = system: PC-3
Hs-578T = system: Hs-578T
NCI/ADR-RES = system: NCI/ADR-RES
MCF7 = system: MCF7
NCI-H23 = system: NCI-H23
MOLT-4 = system: MOLT-4
UACC-257 = system: UACC-257
LOX IMVI = system: LOX IMVI
RPMI-8226 = system: RPMI-8226
CCRF-CEM = system: CCRF-CEM
HCC 2998 = system: HCC 2998
T47D = system: T47D
HL-60 = system: HL-60
DU-145 = system: DU-145
UACC-62 = system: UACC-62
SF-539 = system: SF-539
HOP-92 = system: HOP-92
OVCAR-5 = system: OVCAR-5
SK-OV-3 = system: SK-OV-3
OVCAR-4 = system: OVCAR-4
SF-295 = system: SF-295
MDA-MB-231 = system: MDA-MB-231
NCI-H226 = system: NCI-H226
Malme-3M = system: Malme-3M
SN12C = system: SN12C
786-0 = system: 786-0
HCT-116 = system: HCT-116

SMILES: Cc1ccc(C(=O)N/N=C(\N=N\c2ccccc2)c2ccc(N(CCC#N)CCC#N)cc2C)cc1
- GI50 (SR): > 100 µM (inactive)
- GI50 (SF-268): 24.2 µM (inactive)
- GI50 (SW-620): > 100 µM (inactive)
- GI50 (OVCAR-8): 38 µM (inactive)
- GI50 (IGROV-1): > 100 µM (inactive)
- GI50 (COLO 205): > 100 µM (inactive)
- GI50 (A498): > 100 µM (inactive)
- GI50 (NCI-H460): > 100 µM (inactive)
- GI50 (OVCAR-3): 39.2 µM (inactive)
- GI50 (TK-10): 51.1 µM (inactive)
- GI50 (KM12): > 100 µM (inactive)
- GI50 (HOP-62): 23.1 µM (inactive)
- GI50 (K562): > 100 µM (inactive)
- GI50 (NCI-H522): 19.4 µM (inactive)
- GI50 (MDA-MB-435): 45.6 µM (inactive)
- GI50 (SK-MEL-28): 13 µM (inactive)
- GI50 (CAKI-1): 64.6 µM (inactive)
- GI50 (U-251): 92.5 µM (inactive)
- GI50 (HT-29): 35.1 µM (inactive)
- GI50 (SK-MEL-2): 69.8 µM (inactive)
- GI50 (UO-31): > 100 µM (inactive)
- GI50 (SK-MEL-5): 31.8 µM (inactive)
- GI50 (HCT-15): > 100 µM
- GI50 (SNB-19): 58.3 µM (inactive)
- GI50 (SNB-75): 34 µM (inactive)
- GI50 (RXF 393): 38.9 µM (inactive)
- GI50 (A549): > 100 µM (inactive)
- GI50 (ACHN): > 100 µM (inactive)
- GI50 (EKVX): 74.6 µM (inactive)
- GI50 (M14): > 100 µM (inactive)
- GI50 (PC-3): 67.9 µM (inactive)
- GI50 (Hs-578T): 28.2 µM (inactive)
- GI50 (NCI/ADR-RES): > 100 µM (inactive)
- GI50 (MCF7): 53.5 µM (inactive)
- GI50 (NCI-H23): 85.7 µM (inactive)
- GI50 (MOLT-4): > 100 µM (inactive)
- GI50 (UACC-257): 82.4 µM (inactive)
- GI50 (LOX IMVI): 99.1 µM (inactive)
- GI50 (RPMI-8226): > 100 µM (inactive)
- GI50 (CCRF-CEM): > 100 µM (inactive)
- GI50 (HCC 2998): > 100 µM (inactive)
- GI50 (T47D): > 100 µM (inactive)
- GI50 (HL-60): > 100 µM (inactive)
- GI50 (DU-145): > 100 µM (inactive)
- GI50 (UACC-62): 38.8 µM (inactive)
- GI50 (SF-539): 18.3 µM (inactive)
- GI50 (HOP-92): > 100 µM (inactive)
- GI50 (OVCAR-5): > 100 µM (inactive)
- GI50 (SK-OV-3): 74 µM (inactive)
- GI50 (OVCAR-4): 65.5 µM (inactive)
- GI50 (SF-295): 86.5 µM (inactive)
- GI50 (MDA-MB-231): > 100 µM (inactive)
- GI50 (NCI-H226): 54.8 µM (inactive)

SMILES: COc1cc([C@@H]2c3cc4c(cc3[C@@H](Nc3ccc(C(=O)N[C@H]5CCc6cc(OC)c(OC)c(OC)c6-c6ccc(SC)c(=O)cc65)cc3)[C@H]3COC(=O)[C@H]23)OCO4)cc(OC)c1O
- GI50 (SR): < 0.01 µM (active)
- GI50 (SF-268): 11.7 µM (inactive)
- GI50 (Malme-3M): 0.322 µM (active)
- GI50 (SW-620): < 0.01 µM (active)
- GI50 (OVCAR-8): < 0.01 µM (active)
- GI50 (SN12C): < 10 nM (active)
- GI50 (COLO 205): < 0.01 µM (active)
- GI50 (A498): 0.437 µM (active)
- GI50 (NCI-H460): < 0.01 µM (active)
- GI50 (TK-10): 15.2 µM (inactive)
- GI50 (K562): < 0.01 µM (active)
- GI50 (NCI-H522): < 0.01 µM (active)
- GI50 (MDA-MB-435): < 0.01 µM (active)
- GI50 (SK-MEL-28): 13 µM (inactive)
- GI50 (CAKI-1): 0.132 µM (active)
- GI50 (U-251): < 0.01 µM (active)
- GI50 (HT-29): < 0.01 µM (active)
- GI50 (786-0): < 0.01 µM (active)
- GI50 (SK-MEL-2): < 0.01 µM (active)
- GI50 (UO-31): 0.698 µM (active)
- GI50 (HCT-15): 0.428 µM
- GI50 (A549): < 0.01 µM (active)
- GI50 (ACHN): 0.0598 µM (active)
- GI50 (M14): < 0.01 µM (active)
- GI50 (NCI/ADR-RES): 0.493 µM (active)
- GI50 (HCT-116): < 0.01 µM (active)
- GI50 (MCF7): < 0.01 µM (active)
- GI50 (NCI-H23): < 0.01 µM (active)
- GI50 (MOLT-4): < 0.01 µM (active)
- GI50 (UACC-257): < 0.01 µM (active)
- GI50 (LOX IMVI): < 0.01 µM (active)
- GI50 (RPMI-8226): < 0.01 µM (active)
- GI50 (CCRF-CEM): < 0.01 µM (active)
- GI50 (UACC-62): < 0.01 µM (active)
- GI50 (SF-539): < 0.01 µM (active)
- GI50 (HOP-92): 0.042 µM (active)
- GI50 (OVCAR-5): 43.1 µM (inactive)
- GI50 (SF-295): < 0.01 µM (active)
- GI50 (NCI-H226): < 0.01 µM (active)

SMILES: CCN(CC)CCOC(NC(C)=O)(c1ccccc1)c1ccccc1
- GI50 (SR): > 100 µM (inactive)
- GI50 (SF-268): > 100 µM (inactive)
- GI50 (Malme-3M): > 100 µM (inactive)
- GI50 (SW-620): > 100 µM (inactive)
- GI50 (OVCAR-8): > 100 µM (inactive)
- GI50 (SN12C): > 100000 nM (inactive)
- GI50 (IGROV-1): > 100 µM (inactive)
- GI50 (COLO 205): > 100 µM (inactive)
- GI50 (A498): > 100 µM (inactive)
- GI50 (NCI-H460): > 100 µM (inactive)
- GI50 (TK-10): > 100 µM (inactive)
- GI50 (KM12): > 100 µM (inactive)
- GI50 (HOP-62): > 100 µM (inactive)
- GI50 (MDA-MB-435): > 100 µM (inactive)
- GI50 (SK-MEL-28): > 100 µM (inactive)
- GI50 (U-251): > 100 µM (inactive)
- GI50 (HT-29): > 100 µM (inactive)
- GI50 (786-0): > 100 µM (inactive)
- GI50 (UO-31): > 100 µM (inactive)
- GI50 (SK-MEL-5): > 100 µM (inactive)
- GI50 (HCT-15): > 100 µM
- GI50 (SNB-19): > 100 µM (inactive)
- GI50 (SNB-75): > 100 µM (inactive)
- GI50 (RXF 393): > 100 µM (inactive)
- GI50 (A549): > 100 µM (inactive)
- GI50 (ACHN): > 100 µM (inactive)
- GI50 (EKVX): > 100 µM (inactive)
- GI50 (M14): > 100 µM (inactive)
- GI50 (Hs-578T): > 100 µM (inactive)
- GI50 (NCI/ADR-RES): > 100 µM (inactive)
- GI50 (HCT-116): > 100 µM (inactive)
- GI50 (MCF7): > 100 µM (inactive)
- GI50 (NCI-H23): > 100 µM (inactive)
- GI50 (MOLT-4): > 100 µM (inactive)
- GI50 (UACC-257): > 100 µM (inactive)
- GI50 (RPMI-8226): > 100 µM (inactive)
- GI50 (CCRF-CEM): > 100 µM (inactive)
- GI50 (HCC 2998): > 100 µM (inactive)
- GI50 (T47D): > 100 µM (inactive)
- GI50 (HL-60): > 100 µM (inactive)
- GI50 (DU-145): > 100 µM (inactive)
- GI50 (UACC-62): > 100 µM (inactive)
- GI50 (SF-539): > 100 µM (inactive)
- GI50 (HOP-92): > 100 µM (inactive)
- GI50 (OVCAR-5): > 100 µM (inactive)
- GI50 (SK-OV-3): > 100 µM (inactive)
- GI50 (OVCAR-4): > 100 µM (inactive)
- GI50 (SF-295): > 100 µM (inactive)
- GI50 (MDA-MB-231): > 100 µM (inactive)
- GI50 (NCI-H226): > 100 µM (inactive)

SMILES: CC(C)Cc1ccc(C(C)C(=O)O)cc1 (stereo not given) [IBUPROFEN]
- GI50 (NCI-H23): > 100 µM (inactive)

SMILES: COc1cc(C2c3cc4c(cc3[C@@H](NC3CCN(Cc5ccccc5)CC3)C3COC(=O)[C@H]23)OCO4)cc(OC)c1O (stereo not given in full)
- GI50 (SR): < 0.01 µM (active)
- GI50 (SN12C): 39.9 nM (active)
